These results are taken from publication PMC10692721, “Drug discovery for heart failure targeting myosin-binding protein C” (The Journal of Biological Chemistry, 2023).

“Also recorded” adds a separate entry of the source.

The test system of assay [1] is fC1-C2 binding to Alexa Fluor 568-actin. Briefly: AF568-actin-MyBP-C FLT binding assay (Fig. S1). Conditions: Suramin 20 µM, NF023 50 µM, ATA 20 µM.
Assay [2] concerns TMR-MyBP-C (cC0-C2, sC1-C2S, sC1-C2L, fC1-C2). Briefly: Compound effects on TMR-MyBP-C lifetime (Fig. S2). It counts as binding. Conditions: Suramin 20 µM, NF023 50 µM, ATA 20 µM.
Excerpt: For FLT-TMR experiments, the same samples were excited at 532 nm.
Compound effects on TMR-MyBP-C lifetime. […] All values are the average ± SD. n=5.
Assay [3] relates to bovine cardiac (left ventricular) myofibrils. Briefly: Cardiac myofibril ATPase assay. The class given is biochemical. Conditions: 50 μM compound; for effect on cardiac MF ATPase activity (in words): pCa 8 to pCa 4. Here is the method: Rabbit psoas and bovine cardiac myofibrils were prepared as described in our previous study ([17]). An enzyme-coupled, NADH-linked ATPase assay was used to measure skeletal and cardiac myofibril ATPase activity in 96-well microplates at 23 °C. Ionic strength was maintained below 0.2 M, so myofilaments remained insoluble and stable ([32]). To achieve optimal enzymatic activities, buffers for skeletal and cardiac myofibrils differed slightly ([33], [34]): skeletal in 50 mM MOPS, 100 mM KCl, 5 mM MgCl2, 1 mM EGTA, pH 7.0; cardiac in 20 mM MOPS, 35 mM NaCl, 5 mM MgCl2, 1 mM EGTA, pH 7.0. Each well in the microplate contained an assay mix of 0.84 mM phosphoenolpyruvate, 0.17 mM NADH, 10 U/vol pyruvate kinase, 20 U/vol lactate dehydrogenase. The concentration of free Ca^2+ was controlled by EGTA buffering ([35]). Myofibrils were dispensed in microplates with a multichannel pipette and were incubated with assay mix plus compound of interest for 20 min at 23 °C. The concentration of myofibrils used was 0.01 mg/ml for skeletal and 0.05 mg/ml for cardiac myofibrils. The assay was started upon the addition of ATP, at a final concentration of 2.1 mM (total volume to 200 μl), and absorbance was recorded at 340 nm in a SpectraMax Plus microplate spectrophotometer from Molecular Devices. The steady-state myofibrillar ATPase rate was measured from NADH oxidation, measured as the rate of decrease in absorption at 340 nm for 30 min, with absorption data collected every 15 s. All data and statistical analysis of steady-state kinetics were conducted with the OriginPro program. The results were fitted with the Hill equation:(6) […] is the ATPase rate and n is the Hill coefficient. ATPase activity is reported on the μmol ATP/mg protein/min scale. Average data are presented as mean ± SD. Sample means are derived from three different myofibril preps (N = 3), each done in duplicate (n = 6). The effects of compounds on ATPase activity of myofibrils were determined in the presence of 50 μM compound, across a 12-point pCa range from 4.0 (activation) to 8.0 (relaxation). The calcium sensitivity (pCa50) was determined by fitting the curves to the Hill equation. […] The normalized ATPase activity of the selected compounds can be found in Figure 6.

The subject of assay [4] is rabbit fast skeletal (psoas) myofibrils. Briefly: Skeletal myofibril ATPase assay. It counts as biochemical. Conditions: 50 μM compound; for effect on skeletal MF ATPase activity (in words): pCa 8 to pCa 4. Here is the method:
Rabbit psoas and bovine cardiac myofibrils were prepared as described in our previous study ([17]). An enzyme-coupled, NADH-linked ATPase assay was used to measure skeletal and cardiac myofibril ATPase activity in 96-well microplates at 23 °C. Ionic strength was maintained below 0.2 M, so myofilaments remained insoluble and stable ([32]). To achieve optimal enzymatic activities, buffers for skeletal and cardiac myofibrils differed slightly ([33], [34]): skeletal in 50 mM MOPS, 100 mM KCl, 5 mM MgCl2, 1 mM EGTA, pH 7.0; cardiac in 20 mM MOPS, 35 mM NaCl, 5 mM MgCl2, 1 mM EGTA, pH 7.0. Each well in the microplate contained an assay mix of 0.84 mM phosphoenolpyruvate, 0.17 mM NADH, 10 U/vol pyruvate kinase, 20 U/vol lactate dehydrogenase. The concentration of free Ca^2+ was controlled by EGTA buffering ([35]). Myofibrils were dispensed in microplates with a multichannel pipette and were incubated with assay mix plus compound of interest for 20 min at 23 °C. The concentration of myofibrils used was 0.01 mg/ml for skeletal and 0.05 mg/ml for cardiac myofibrils. The assay was started upon the addition of ATP, at a final concentration of 2.1 mM (total volume to 200 μl), and absorbance was recorded at 340 nm in a SpectraMax Plus microplate spectrophotometer from Molecular Devices. The steady-state myofibrillar ATPase rate was measured from NADH oxidation, measured as the rate of decrease in absorption at 340 nm for 30 min, with absorption data collected every 15 s. All data and statistical analysis of steady-state kinetics were conducted with the OriginPro program. The results were fitted with the Hill equation:(6) V=V0+(Vmax/1+10^−n∗^(pCa50−pCa)) where V is the ATPase rate and n is the Hill coefficient.
ATPase activity is reported on the μmol ATP/mg protein/min scale. Average data are presented as mean ± SD. Sample means are derived from three different myofibril preps (N = 3), each done in duplicate (n = 6).
The effects of compounds on ATPase activity of myofibrils were determined in the presence of 50 μM compound, across a 12-point pCa range from 4.0 (activation) to 8.0 (relaxation). The calcium sensitivity (pCa50) was determined by fitting the curves to the Hill equation. In all experiments, a 1% DMSO-only control was included. The normalized ATPase activity of the selected compounds can be found in Figure 6.

The subject of assay [5] is FMAL-actin/TMR-cC0-C2 interaction. Briefly: FLT-FRET concentration-response assay, FMAL-actin plus TMR-cC0-C2. Conditions: unphosphorylated cC0-C2. The class given is binding, human. The procedure, abridged:
(§1)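 Hits tested at eight concentrations (0.5–100 μM) and read on a high-throughput fluorescence lifetime plate reader. Hill fits applied only under certain conditions.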

Assay [6] deals with PKA-phosphorylated TMR-cC0-C2 (cC0-C2#P). Briefly: FLT-TMR concentration-response assay, PKA-phosphorylated cC0-C2. The class given is binding, human. As to conditions: 60 μM compound. The method in brief:
as §1

The test system of the next assay is TMR-cC0-C2. Briefly: Selleck library HTS, 532 nm excitation (FLT of TMR-cC0-C2 in presence of FMAL-actin). It counts as binding, human.
Assay [7] concerns FMAL-actin plus TMR-cC0-C2. Briefly: Selleck library HTS, 473 nm excitation (FLT of FMAL-actin with TMR-cC0-C2, FLT-FRET). It counts as binding, human. The procedure, abridged: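 Donor fluorescence lifetime was then recorded. Waveforms were fit to a single exponential, and ΔFLT was obtained after a moving-median plate-gradient correction (half-row window), rescaled by the median DMSO lifetime.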

The test system of assay [8] is TMR-fC1-C2 (C1-C2 of fast skeletal MyBP-C). Briefly: FLT-TMR concentration-response assay, fC1-C2. It counts as binding. As to conditions: 60 μM compound. The method in brief:
as §1

For assay [9], the system named is TMR-cC0-C2 (C0-C2 fragment of human cMyBP-C). Briefly: FLT-TMR concentration-response assay (FLT of TMR on cC0-C2, no actin). As to conditions: 60 μM compound. The class given is binding. The method in brief: as §1
Assay [10] concerns the target actin (Oryctolagus cuniculus) (UniProt P68135). Briefly: FLT. Conditions: cited from earlier work.
Assay [11] shares this target. Briefly: FLT. Conditions: cited from earlier work. The source holds these as a separate data set.
For assay [12] the target is unchanged. Briefly: cosedimentation. Conditions: cited from earlier work.
Assay [13] has the same target. Briefly: cosedimentation. As to conditions: cited from earlier work. The source holds these as a separate data set.
Setting [14] is: robust z-score, hit threshold ±4, 30 μM compound.

The Kd is the free concentration of one partner at which half of the binding sites on the other are occupied at equilibrium, for simple one-to-one binding.

For the compound `O=C(O)C1=CC(=C(c2ccc(O)c(C(=O)O)c2)c2ccc(O)c(C(=O)O)c2)C=CC1=O` [ATA, Aurintricarboxylic acid], the “effect on binding of fC1-C2 (2 µM) to Alexa Fluor 568-actin (1 µM) (in words)” value (“effect on binding of fC1-C2 (2 µM)” for short) in [1] is reported as “decreased the binding”. The “effect on FLT of TMR-MyBP-C, all MyBP-C isoforms (in words)” value (“effect on FLT of TMR-MyBP-C” for short) in assay [2] is recorded as “decreased”.

As to `O=C(Nc1cccc(C(=O)Nc2ccc(S(=O)(=O)O)c3cc(S(=O)(=O)O)cc(S(=O)(=O)O)c23)c1)Nc1cccc(C(=O)Nc2ccc(S(=O)(=O)O)c3cc(S(=O)(=O)O)cc(S(=O)(=O)O)c23)c1` [NF023], in assay [1], the “effect on binding of fC1-C2 (2 µM)” value is “decreased the binding”. Further, the “effect on FLT of TMR-MyBP-C” value in assay [2] is on record as “increased”. In addition, in assay [3], the “effect on Ca^2+-sensitivity of cardiac MF ATPase (in words)” value (“effect … of cardiac MF ATPase (in words)” below) is on record as “affected” and the “effect on cardiac MF ATPase activity (in words)” value is reported as “affected”.

In the case of `Cc1ccc(C(=O)Nc2ccc(S(=O)(=O)O)c3cc(S(=O)(=O)O)cc(S(=O)(=O)O)c23)cc1NC(=O)c1cccc(NC(=O)Nc2cccc(C(=O)Nc3cc(C(=O)Nc4ccc(S(=O)(=O)O)c5cc(S(=O)(=O)O)cc(S(=O)(=O)O)c45)ccc3C)c2)c1` [Suramin], in [4], the “effect on Ca^2+-sensitivity of skeletal MF ATPase (in words)” value is on record as “eliminated the Ca^2+-sensitivity” and the “effect on skeletal MF ATPase activity (in words)” value is on record as “showed activation at low Ca^2+; also recorded: strongest effect”. In [1], the “effect on binding of fC1-C2 (2 µM)” value is “decreased the binding”. Moreover, the “effect on FLT-FRET / binding between FMAL-actin and TMR-cC0-C2 (in words)” value in assay [5] is “eliminates binding”. Further, in [2], the “effect on FLT of TMR-MyBP-C” value is reported as “increased”. For the same compound, in [3], the “effect … of cardiac MF ATPase (in words)” value is “eliminated the Ca^2+-sensitivity” and the “effect on cardiac MF ATPase activity (in words)” value is reported as “remained at levels similar to those at low Ca^2+; also recorded: strongest effect”.

On to Enoxaparin sodium, for which the “cC0-C2#P FLT change (% change from DMSO, FLT of TMR-MyBP-C)” value in assay [6] was determined as 6.9%. In addition, in the assay on TMR-cC0-C2 (initial screen, 30 μM compound), the “532-nm Δτ, Repeat 1” value was -0.023 ns and the “532-nm Δτ, Repeat 2” value is listed as -0.033 ns. Besides, the “532-nm z-score (based on avg Δτ)” value in the assay on TMR-cC0-C2 (setting [14]) was -1.67. Besides, in assay [4], the “effect on Ca^2+-sensitivity of skeletal MF ATPase (in words)” value is listed as “negligible” and the “effect on skeletal MF ATPase activity (in words)” value was “reduced at high Ca^2+”. Further, in assay [7] (initial screen, 30 μM compound), the “473-nm Δτ, Repeat 1” value is recorded as 0.190 ns and the “473-nm Δτ, Repeat 2” value amounted to 0.190 ns. Further, the “473-nm z-score (based on avg Δτ)” value in assay [7] (setting [14]) turned out to be 10.68. Moreover, in [8], the “cC0-C2/fC1-C2 (ratio of FLT changes)” value turned out to be 1.1 and the “fC1-C2 FLT change (% change from DMSO, FLT of TMR-MyBP-C)” value is listed as 2.8%. Also, the “effect on FLT-FRET / binding between FMAL-actin and TMR-cC0-C2 (in words)” value in assay [5] was “decrease”. Moreover, in [3], the “effect … of cardiac MF ATPase (in words)” value is “significant decrease in Ca^2+-sensitivity” and the “effect on cardiac MF ATPase activity (in words)” value is on record as “reduced at high Ca^2+; also recorded: specific for cardiac myofibril ATPase effects”. For the same compound, the “Ca^2+-sensitivity (pCa50) of cardiac MF ATPase in presence of compound” value in [3] (5.77 ± 0.03 in the absence of the drug) stood at 5.55 ± 0.03. Besides, in [9], the “cC0-C2/cC0-C2#P (ratio of FLT changes)” value is listed as 0.4 and the “cC0-C2 FLT change (% change from DMSO, FLT of TMR-MyBP-C)” value is on record as 3.1%.

As to “cardiac MyBP-C C0-C2 (from UniProt Q14896)”, the Kd in [10] is 2.5 µM; in assay [11], 19 µM; in [12], 4.3 µM; in assay [13] it was 6.5 µM.
